Measurements published in patent publication US12435085B2, “Crystalline forms and formulations of a VCP/p97 inhibitor” (CASI Pharmaceuticals, Inc., priority 2020, dated 2025).
pIC50: −log10 of the molar value.

Columns and labels:
[1] = Relative humidity (RH) stress of salts; assay type: physicochemical; conditions: solid in open vial, 10 days at 94% RH
Source text: Solids of select Compound 1 salts were exposed to ˜94% RH (ASTM Standard E, 104-85, 1996) for a given period of time by placing the solids into an open vial inside a sealed container. Samples were observed visually for signs of deliquescence after removal from the stress environment.

p97 = p97 (Homo sapiens, UniProt P55072); experiment: p97 inhibition assay (ADP glo luminescence); assay type: biochemical; conditions: ATP 20 μM, p97 20 nM, 37° C. for 15 min
Chain of p97 (P55072 whole entry): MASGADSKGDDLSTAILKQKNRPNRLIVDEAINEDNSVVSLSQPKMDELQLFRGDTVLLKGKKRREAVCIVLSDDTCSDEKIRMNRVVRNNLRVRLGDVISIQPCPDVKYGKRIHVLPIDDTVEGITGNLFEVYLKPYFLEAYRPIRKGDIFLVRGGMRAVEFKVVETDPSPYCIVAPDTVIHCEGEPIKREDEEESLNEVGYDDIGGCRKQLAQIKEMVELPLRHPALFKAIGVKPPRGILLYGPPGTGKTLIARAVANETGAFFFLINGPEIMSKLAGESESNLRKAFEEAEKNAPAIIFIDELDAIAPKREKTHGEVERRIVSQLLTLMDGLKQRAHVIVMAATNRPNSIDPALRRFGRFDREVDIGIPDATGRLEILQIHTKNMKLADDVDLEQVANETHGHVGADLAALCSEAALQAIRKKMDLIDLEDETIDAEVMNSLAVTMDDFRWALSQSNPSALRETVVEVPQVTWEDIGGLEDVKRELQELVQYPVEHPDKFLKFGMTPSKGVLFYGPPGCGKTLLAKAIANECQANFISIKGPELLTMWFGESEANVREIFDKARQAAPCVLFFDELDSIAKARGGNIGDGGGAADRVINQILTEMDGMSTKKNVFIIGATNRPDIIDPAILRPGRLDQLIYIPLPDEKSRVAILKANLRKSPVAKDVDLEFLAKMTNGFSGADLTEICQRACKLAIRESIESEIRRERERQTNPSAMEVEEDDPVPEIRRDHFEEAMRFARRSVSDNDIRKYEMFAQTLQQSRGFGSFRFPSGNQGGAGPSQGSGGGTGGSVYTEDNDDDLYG
Procedure: The p97 assay is an assay used to determine inhibitory activity of compounds against the p97 complex. Inhibition of activity of the p97 proteosome complex can enable apoptosis and cause elimination of neoplastic cells (cancer cells). The assay follows that of Christianson in Nat. Cell Biol., (2011) 14:93. The reagents used for the p97 assay include an assay buffer which is a mixture of 50 mM TRIS pH 7.5, 20 mM MgCI˜, 0.02% TX-100, 1 mM DTT and 0.2% (v/v) glycerol. The well plate is a Corning 3674, 384w plate. The identification kit is an ADP glo kit (Promega): stop buffer, detection reagent.
The assay is conducted as follows: • Serial dilute compound in DMSO in a 1:3.33-fold 10 point serial dilution. • In each well of 384w plate add the following reagents: • 0.5 μL compound serial diluted in DMSO (Final Conc. 10%) • 2 μL ATP (Final Conc.=20 μM, diluted in assay buffer) • 2.5 μL p97 (Final Conc.=20 nM, diluted in assay buffer). • Incubate at 37° C. for 15 min. • Add 5 μL of stop buffer, incubate at RT for 40 min. • Add 10 μL of detection reagent, incubate at RT for 30 min. • Read luminescence on Envision plate reader. […]

Structure (SMILES): Cc1cc2c(C(N)=O)cccc2n1-c1nc2c(c(NCc3ccccc3)n1)CCCN2.Cl.Cl [Compound 1 hydrochloride, 1-(4-(benzylamino)-5,6,7,8-tetrahydropyrido[2,3-d]pyrimidin-2-yl)-2-methyl-1H-indole-4-carboxamide hydrochloric acid salt (hydrochloride)]
- RH stress: change in appearance/texture (signs of deliquescence, visual) [1]: no apparent change in appearance/texture

Structure (SMILES): Cc1cc2c(C(N)=O)cccc2n1-c1nc2c(c(NCc3ccccc3)n1)CCCN2.O=S(=O)(O)O.O=S(=O)(O)O [Compound 1 sulfate, 1-(4-(benzylamino)-5,6,7,8-tetrahydropyrido[2,3-d]pyrimidin-2-yl)-2-methyl-1H-indole-4-carboxamide sulfuric acid salt (sulfate)]
- RH stress: change in appearance/texture (signs of deliquescence, visual) [1]: no apparent change in appearance/texture

Structure (SMILES): Cc1cc2c(C(N)=O)cccc2n1-c1nc2c(c(NCc3ccccc3)n1)CCCN2.Cc1ccc(S(=O)(=O)O)cc1.Cc1ccc(S(=O)(=O)O)cc1 [Compound 1 tosylate, 1-(4-(benzylamino)-5,6,7,8-tetrahydropyrido[2,3-d]pyrimidin-2-yl)-2-methyl-1H-indole-4-carboxamide p-toluenesulfonic acid salt (tosylate)]
- RH stress: change in appearance/texture (signs of deliquescence, visual) [1]: no apparent change in appearance/texture

Structure (SMILES): Cc1cc2c(C(N)=O)cccc2n1-c1nc2c(c(NCc3ccccc3)n1)CCCN2 [Compound 1, 1-(4-(benzylamino)-5,6,7,8-tetrahydropyrido[2,3-d]pyrimidin-2-yl)-2-methyl-1H-indole-4-carboxamide]
- pIC50 (p97): > 7.52
